As a reminder, the clearance is a measure of how efficiently the substance is removed, as volume per time. The Vd is a proportionality between amount in the body and measured concentration, not a real space. Usually Cmax stands for the highest concentration seen after dosing. What is called bioavailability is dose-corrected exposure relative to a reference, in per cent. The low end stands for little systemic uptake, the high end for much systemic uptake. As a reminder, the Papp A→B is the apparent permeability from the apical to the basolateral side of a cell layer.

Series [1] deals with T1, Poly [ADP-ribose] polymerase 1 (Homo sapiens, UniProt P09874). As to the kind of experiment: Inhibition of PARP1 in BRCA1 deficient human MDA-MB-436 cells assessed as increase in DNA double stranded breaks by measuring gammaH2AX levels after 48 hrs by Western blot analysis. In kind it is cell-based. In general terms: Immunoblotting shows a protein as a band on a membrane.
T1 sequence (P09874 whole entry): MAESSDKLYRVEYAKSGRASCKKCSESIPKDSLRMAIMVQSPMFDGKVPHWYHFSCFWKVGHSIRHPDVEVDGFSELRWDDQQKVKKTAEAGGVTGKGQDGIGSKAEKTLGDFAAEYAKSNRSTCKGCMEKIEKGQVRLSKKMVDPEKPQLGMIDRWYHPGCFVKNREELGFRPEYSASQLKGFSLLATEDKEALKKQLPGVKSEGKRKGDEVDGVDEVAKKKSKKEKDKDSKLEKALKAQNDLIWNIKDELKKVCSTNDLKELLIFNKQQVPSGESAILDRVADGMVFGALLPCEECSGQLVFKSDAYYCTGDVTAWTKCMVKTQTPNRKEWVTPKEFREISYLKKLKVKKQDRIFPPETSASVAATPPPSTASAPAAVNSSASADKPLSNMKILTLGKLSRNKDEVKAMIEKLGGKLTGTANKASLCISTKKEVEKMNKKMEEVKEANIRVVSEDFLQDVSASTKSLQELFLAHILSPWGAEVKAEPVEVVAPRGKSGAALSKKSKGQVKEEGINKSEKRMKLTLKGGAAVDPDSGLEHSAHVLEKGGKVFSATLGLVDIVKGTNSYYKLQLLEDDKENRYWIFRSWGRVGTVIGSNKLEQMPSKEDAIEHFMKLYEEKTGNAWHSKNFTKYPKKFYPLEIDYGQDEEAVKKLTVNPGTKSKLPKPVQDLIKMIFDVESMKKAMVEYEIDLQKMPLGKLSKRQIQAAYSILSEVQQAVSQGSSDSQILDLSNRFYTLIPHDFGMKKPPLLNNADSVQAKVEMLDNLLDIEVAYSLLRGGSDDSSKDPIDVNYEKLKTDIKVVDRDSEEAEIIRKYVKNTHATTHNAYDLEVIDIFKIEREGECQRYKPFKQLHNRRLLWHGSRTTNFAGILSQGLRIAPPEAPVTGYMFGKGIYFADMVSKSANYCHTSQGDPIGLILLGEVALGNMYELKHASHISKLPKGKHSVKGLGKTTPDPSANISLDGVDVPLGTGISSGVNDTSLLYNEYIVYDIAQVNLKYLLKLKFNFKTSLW

Series [2] concerns CAPAN-1. As to the kind of experiment: Cell cycle arrest in human Capan1 cells assessed as accumulation at G0/G1 phase at 0.1 uM after 72 hrs by propidium iodide-staining based flow cytometry (reference value: 63.33%). Format: functional. Background: Flow cytometry measures light scatter and fluorescence of single cells or particles in a stream.
In series [3] the test system is CAPAN-1. The series can be described thus: Cell cycle arrest in human Capan1 cells assessed as accumulation at G2/M phase at 10 uM after 72 hrs by propidium iodide-staining based flow cytometry (reference value: 15.26%). In kind it is functional.
Series [4] relates to CAPAN-1. As to the kind of experiment: Effect on total ATM protein levels in human Capan1 cells at 0.1 to 1 uM after 48 hrs by Western blot analysis. Format: ADME, cell-based. To be noted: capan-1, 48 h.
Series [5] deals with MDA-MB-436. The series can be described thus: Induction of apoptosis in human MDA-MB-436 cells assessed as early apoptotic cells at 0.1 uM after 96 hrs by Annexin V-FITC/propidium iodide double-staining based flow cytometery (reference value: 1.90%). In kind it is functional.
For series [6], the system named is MDA-MB-436. As to the kind of experiment: Induction of apoptosis in human MDA-MB-436 cells assessed as early apoptotic cells at 1 uM after 96 hrs by Annexin V-FITC/propidium iodide double-staining based flow cytometery (reference value: 1.90%). In kind it is functional.
The test system of series [7] is MDA-MB-436. The series can be described thus: Induction of apoptosis in human MDA-MB-436 cells assessed as late apoptotic cells at 1 uM after 96 hrs by Annexin V-FITC/propidium iodide double-staining based flow cytometery (reference value: 5.61%). In kind it is functional.
Series [8] concerns MDA-MB-436. As to the kind of experiment: Induction of apoptosis in human MDA-MB-436 cells assessed as early apoptotic cells at 1 uM after 96 hrs in presence of pancaspase inhibitor Z-VAD-FMK by Annexin V-FITC/propidium iodide double-staining based flow cytometery (reference value: 2.32%). In kind it is functional.
Series [9] has as its system MDA-MB-436. As to the kind of experiment: Induction of apoptosis in human MDA-MB-436 cells assessed as late apoptotic cells at 1 uM after 96 hrs in presence of pancaspase inhibitor Z-VAD-FMK by Annexin V-FITC/propidium iodide double-staining based flow cytometery (reference value: 5.11%). In kind it is functional.
For series [10], the system named is MDA-MB-436. The series can be described thus: Antitumor activity against human MDA-MB-436 cells harboring BRCA1 mutant xenografted in nude BALB/cA mouse assessed as tumor growth inhibition at 50 mg/kg, po administered once daily for 21 consecutive days measured twice per week. Conditions: MDA-MB-436, po, read-out: TGI. In kind it is functional. (In general: In xenograft studies the graft and the host belong to different species.)

The test system of series [11] is Mus musculus. The series can be described thus: Toxicity in nude BALB/cA mouse xenografted with human MDA-MB-436 cells harboring BRCA1 mutant assessed as weight loss at 50 mg/kg, po administered once daily for 21 consecutive days measured twice per week. To be noted: in vivo. Format: organism-based.
Series [12] concerns Mus musculus. As to the kind of experiment: Toxicity in nude BALB/cA mouse xenografted with human Capan1 cells harboring BRCA2 mutant assessed as weight loss at 40 mg/kg, po administered once daily for 21 consecutive days measured twice per week. In kind it is organism-based. To be noted: in vivo.
The nature of series [13]: Clearance in Sprague-Dawley rat at 5 mg/kg, iv by LC-MS/MS analysis. In kind it is ADME, organism-based. Conditions: in vivo.
A short description of series [14]: Volume of distribution in Sprague-Dawley rat at 5 mg/kg, iv by LC-MS/MS analysis. Format: ADME, organism-based. Conditions: in vivo.
A short description of series [15]: Cmax in Sprague-Dawley rat at 5 mg/kg, iv by LC-MS/MS analysis. Format: ADME, organism-based. Also on record: dose 5 mg/kg, route intravenous. Conditions: in vivo.
Series [16] is described as follows: Cmax in Sprague-Dawley rat at 10 mg/kg, po by LC-MS/MS analysis. Also on record: dose 10 mg/kg, route oral. In kind it is ADME, organism-based. Conditions: in vivo.
A short description of series [17]: Oral bioavailability in Sprague-Dawley rat at 10 mg/kg by LC-MS/MS analysis. Format: ADME, organism-based. To be noted: in vivo.
A short description of series [18]: Protein binding in mouse plasma at 0.5 to 50 uM after 4 hrs by LC-MS/MS analysis. Format: ADME, cell-free. Conditions: read-out: PPB (converted).
The nature of series [19]: Elimination half-life in mouse liver microsomes at 2 uM up to 60 mins by LC-MS/MS analysis. Format: ADME, microsome. Conditions: read-out: beta t1/2.
Series [20] is described as follows: Apparent permeability across apical to basolateral side in human Caco2 cells after 2 hrs by LC-MS/MS analysis. In kind it is ADME, cell-based. Conditions: Caco-2.
Series [21] is described as follows: Apparent permeability across apical to basolateral side in human Caco2 cells assessed as drug recovery at 4701.8 pmol after 2 hrs by LC-MS/MS analysis. In kind it is ADME, cell-based. Conditions: Caco-2, read-out: Drug recovery.
The nature of series [22]: Drug metabolism in mouse liver microsomes assessed as oxidative metabolite formation at 2 uM up to 60 mins in presence of NADPH by LC-MS/MS analysis. Format: ADME, microsome. To be noted: 1 h.
In series [23] the target is T1, Poly [ADP-ribose] polymerase 1. As to the kind of experiment: Inhibition of PARP1 in BRCA2 deficient human Capan1 cells assessed as increase in DNA double stranded breaks by measuring gammaH2AX levels after 72 hrs by Western blot analysis.

Regarding `N#Cc1cccnc1N1CCN(C(=O)c2cc(Cc3n[nH]c(=O)c4ccccc34)cc(F)c2F)CC1`, the inhibition entry in series [1] and in series [23] was “Dose-dependent effect” throughout. Besides, the Activity in series [2] is on record as 55.92%; in series [3] it was 72.45%; in series [4], “Non-Toxic”; in series [5], 5.36%; in [6], 7.09%; in series [7], 32.34%. The Activity is 6.61% in [8], 18.6% in [9], “Non-Toxic” in series [11] and “Non-Toxic” in series [12]. Moreover, the inhibition in vivo at 50 mg/kg in series [10] came out at 94.2%. Also, the clearance in series [13] was 60 mL/min/kg. This compound also showed a Vd in [14] of 27.5 L/kg. Further, the values for the Cmax in series [15] and in [16] were 3260 ng/mL and 74.4 ng/mL, respectively. In addition, the bioavailability in [17] stood at 4.7%. The fraction unbound at 4 h, up to 50 µM in series [18] is 0.012. In addition, the half-life at 2 µM in series [19] was 3 min. Besides, in series [20], the Papp A→B at 2 h stood at 6.8 ×10⁻⁶ cm/s. Besides, the recovery at 2 h in series [21] stood at 91.5%. Also, the Drug metabolism entry in [22] was “Metabolite_Detected”.
